“Also recorded” adds a separate entry of the source.
Experiments:
Type in all cases: in vivo, mouse
[1] = test system: renal FGF23 target genes Cyp27b1 and Cyp24a1; assay: Renal FGF23 target gene expression (qPCR) after single oral dose in wild-type and Hyp mice; settings: both wild-type and Hyp mice, single oral dose 50 mg/kg, 7 h
Text: (§1) FGFR inhibitor treatment induces 1,25(OH)2D3 biosynthesis and alleviates hypocalcemia and hypophosphatemia in Hyp mice. Wild-type C57BL/6 and Hyp (B6.Cg-PhexHyp/J) mice were obtained from The Jackson Laboratory. Dmp1-null mice were generated by Feng et al. (J. Dent. Res. 2003; 82:776-780.). All mice were kept in cages under standard laboratory conditions. Mice were fed on a standard rodent diet with water ad libitum.
Wild-type or Hyp mice received a single oral dose of the FGFR inhibitor BGJ398 in its free base form (50 mg/kg) or vehicle and were studied 7 h after administration of the compound. BGJ398 or vehicle only (PEG-300/Glucose 5%, 2:1 mix) was administered by oral gavage. Mice were used at 5-7 weeks of age in the case of single dose administrations. […] Concentrations of BGJ398 in kidney at 7 h was also determined. […]
Gene expression was analyzed by quantitative real-time PCR (qPCR). […] Quantitative real-time PCR was performed in an iQ5 Real-Time PCR Detection System using a qPCR core kit for probe assay and an equivalent of 40 or 80 ng RNA of each sample. […]
FGF23 exerts its hypophosphatemic functions in part by transcriptional regulation of the 1,25(OH)2D3-metabolizing enzymes CYP27B1 and CYP24A1 in the kidney. We therefore monitored renal Cyp27b1 and Cyp24a1 expression upon single dose treatment with BGJ398 in Hyp mice and wild-type littermates.

Hyp mice [2] = assay: Serum 1,25(OH)2D3, calcium and phosphate after single oral dose in wild-type and Hyp mice
Text: as §1
Wild-type or Hyp mice received a single oral dose of the FGFR inhibitor BGJ398 in its free base form (50 mg/kg) or vehicle and were studied 7 h after administration of the compound. BGJ398 or vehicle only (PEG-300/Glucose 5%, 2:1 mix) was administered by oral gavage. Mice were used at 5-7 weeks of age in the case of single dose administrations. Mice were anesthetized by isoflurane inhalation and blood was collected from the caval vein. Mice were sacrificed by exsanguination and kidney and tibial and femoral bones were obtained. Concentrations of BGJ398 in kidney at 7 h was also determined.
(§2) Serum was separated from whole blood using clot activator centrifugation tubes. 100 μl of serum were used for determination of phosphate and calcium levels using the VetScan diagnostic profiling system. Serum concentrations of 1,25(OH)2D3 were determined using a radio receptor assay kit. FGF23 serum levels were analyzed by an ELISA detecting intact FGF23 (Kainos).
At 24 h post-dosing, single dose treatment with BGJ398 induced elevated serum calcium and phosphate levels in both wild-type and Hyp mice, thus alleviating the severe hypocalcemia and hypophosphatemia observed in control Hyp mice. […] Data in FIGS. 1 A and B is shown as relative levels to the wild-type control group (relative expression of 100) and are given as average with standard errors of the mean (SEM) (n≥6).
Similarly to example 1, wild-type or Hyp mice received a single oral dose of the FGFR inhibitor BGJ398 or vehicle and were studied […] after administration of the compound. Calcium (FIG. 4A) and phosphate (FIG. 4B) levels were determined from serum. Data are shown as average with SEM (n≥3). Data were compared by unpaired Student's t test; * p<0.05; ** p<0.01; *** p<0.001; n. s.: not significant. (C) BGJ398 concentrations in kidney at 7 h and 24 h post-administration. Values are given as average with SEM (n≥5).

Dmp1-null mice = assay: Serum calcium and phosphate after single oral dose in Dmp1-null mice; settings: single oral dose 50 mg/kg, 24 h post-administration
Text: as §1
For analysis of calcium and phosphate levels mice received a single oral dose of the FGFR inhibitor BGJ398 (50 mg/kg) or vehicle and were studied 24 h post-administration. Phosphate and calcium levels were determined from serum. As for Hyp mice, pharmacological FGFR inhibition led to increased serum calcium and phosphate levels in Dmp1-null mice (FIGS. 2C and D, respectively). Data in FIG. 2 are shown as average with SEM (n≥6). Data were compared by unpaired Student's t test; * p<0.05; ** p<0.01; *** p<0.001; n. s.: not significant.

FGF23 = FGF23 bone mRNA and serum levels after single oral dose in wild-type and Hyp mice; settings: single oral dose 50 mg/kg, 7 h post-dosing
Method: Kidneys were sampled, total RNA was isolated. For RNA isolation from mouse tibial and femoral bones, epiphyses were cut off and bone marrow was removed by centrifugation at 4° C. Tissue was homogenized using a Precellyis 24 bead homogenizer and RNA was extracted with TRIzol reagent. RNA was purified subsequently by chloroform extraction, isopropanol precipitation and RNeasy Mini kit. For kidney RNA, approximately 60 mg of tissue was homogenized in 1.5 ml RTL buffer (Qiagen) with a rotor-stator homogenizer and RNA was purified with the RNeasy Mini kit. Random hexamer primed cDNA was synthesized with 0.5-2 μg RNA and MultiScribe MuLV reverse transcriptase.
Gene expression was analyzed by quantitative real-time PCR (qPCR). TaqMan Probe-Based Gene Expression assays were used for expression analysis of mouse Cyp27b1 (Mm01165919), Cyp24a1 (Mm00487244) and Gapdh (4352339E). Sequences of primers and FAM/TAMRA-labeled probes (Microsynth) for the detection of mouse Fgf23 were 5′-[…] (forward), 5′-[…] (reverse) and 5′-[…] (probe). Quantitative real-time PCR was performed in an iQ5 Real-Time PCR Detection System using a qPCR core kit for probe assay and an equivalent of 40 or 80 ng RNA of each sample. The data were normalized to Gapdh expression.
as §2
Besides the alleviation of the mineral ion deficiency in the two mouse models for FGF23-related hypophosphatemic rickets, we also noticed a repressive effect of FGFR inhibitor treatment on FGF23 levels in BGJ398-treated Hyp mice. Mice received a single oral dose of the FGFR inhibitor BGJ398 (50 mg/kg) or vehicle and were studied 7 h post-administration. FGF23 bone mRNA (FIG. 3A) and serum (FIG. 3B) levels in wild-type and Hyp mice treated with BGJ398 were determined. […]

Hyp mice [3] = assay: Long-term (8 weeks, 3 qw) treatment of Hyp mice: body weight, tail length, serum parameters; settings: 50 mg/kg 3 qw for 56 days
Method: as §2
Long-term FGFR inhibition enhances body weight and tail length development and restores mineral ion homeostasis in Hyp mice. A long-term treatment studies was performed to monitor a potential amelioration of the rickets-like bone phenotypes of the Hyp mouse model. Treatments were performed over a course of 8 weeks. Owing to the persistence of elevated calcium and phosphate levels—extending beyond the clearance of BGJ398 from the kidney (FIG. 4)—mice were treated three times weekly (3 qw) with BGJ398 (50 mg/kg body weight) or vehicle for 56 days and analyzed similarly as explained above. […] Total body weight (FIG. 5B) and tail length gain (FIG. 5D) over the course of the treatment are depicted in FIG. 5 as well. Calcium (FIG. 5E) and phosphate (FIG. 5F) levels at the end of the 8 week treatment were determined from serum 24 h after the last administration and are shown in FIG. 5. Data are shown as average with SEM (n≥6). Data were compared by unpaired Student's t test; * p<0.05; ** p<0.01; *** p<0.001; n. s.: not significant.
Wild-type or Hyp mice were treated again with the FGFR inhibitor BGJ398 (50 mg/kg) or vehicle 3 qw for 56 days and FGF23 (FIG. 6A), parathyroid hormone (PTH) (FIG. 6B) and 1,25(OH)2D3 (FIG. 6C) levels were determined from serum at 24 h after the last dosing. PTH values were determined by separating the serum from whole blood using clot activator centrifugation tubes (Sarstedt). 20 μl of serum were used for determination PTH levels using a mouse PTH ELISA (Immutopics). Data were compared by unpaired Student's t test; * p<0.05; ** p<0.01; *** p<0.001; n. s.: not significant.

Hyp mice [4] = assay: Long-term (8 weeks, 3 qw) treatment of Hyp mice: bone radiography, micro-CT, histology/histomorphometry; settings: 50 mg/kg 3 qw for 56 days
Method: Radiographs of femur and tibia were taken ex vivo using a high-resolution radiography system (Faxitron MX-20). μCT measurements were performed ex vivo using a Scanco vivaCT 40 system (voxel size 6 μm; high resolution). For cancellous and cortical bone analyses a fixed threshold of 200 was used to determine the mineralized bone fraction from 50 slices. A Gaussian filter was applied to remove noise (σ=0.7; support=1).
As shown on FIG. 7 long-term FGFR inhibition enhances growth of long bones in Hyp mice. Taken together, these above results illustrate the beneficial effect of pharmacological FGFR inhibition in the context of aberrant FGF23 signaling and indicate a potential alleviation of the bone formation deficiency of Hyp mice. […] On FIG. 7.: Radiographs of femur (FIG. 7A) and tibia (FIG. 7B) from wild-type or Hyp mice treated with the FGFR inhibitor BGJ398 (50 mg/kg) or vehicle 3 qw for 56 days. Quantification of femoral (FIG. 7C) and tibial (FIG. 7D) length. Data are shown as average with SEM (n≥6). Data were compared by unpaired Student's t test; * p<0.05; ** p<0.01; *** p<0.001; n. s.: not significant.
Long-term FGFR inhibition improves cortex integrity in femoral bone of Hyp mice. To determine the effect of FGFR inhibitor treatment on bone structure in more detail, we performed microcomputed tomography (CT) analyses of the femoral cortex (sub growth plate area) from wild-type or Hyp mice treated with the FGFR inhibitor BGJ398 (50 mg/kg) or vehicle 3 qw for 56 days (FIG. 8A). Further relative cortical bone volume was quantified (FIG. 8B) and average cortex thickness determined (FIG. 8C).
Long-term treatment with BGJ398 restores growth plate organization Hyp mice. we also found an ameliorative effect of BGJ398-treatment on growth plate organization in Hyp mice in tibial histological sections (FIG. 9A). […] Mineralized tissue is indicated by white arrows, unmineralized osteoid is visualized by dark grey (indicated by black arrows). Growth plate structure is shown by light grey staining in the central part of the sections (FIG. 9B). Osteoid surface/bone surface and osteoid width (FIG. 9C) determined by histomorphometry in the tibial epiphysis of wild-type or Hyp mice treated with BGJ398 (50 mg/kg) or vehicle 3 qw for 56 days. Data are shown as average with SEM (n≥6). Data were compared by unpaired Student's t test; * p<0.05; ** p<0.01; *** p<0.001. In vehicle-treated Hyp mice the columnar organization and directional growth of chondrocytes was disturbed in contrast to the highly ordered structure in wild-type mice. In addition, mineralization was impaired in control Hyp mice, as indicated by the abundance of unmineralized osteoid.

[5] = Hyp mice, single oral dose 50 mg/kg, 24 h post-dosing
[6] = both wild-type and Hyp mice, single oral dose 50 mg/kg, 24 h post-dosing, 50 mg/kg
[7] = wild-type or Hyp mice, single oral dose, 48 h after administration
[8] = Hyp mice, 24 h after last administration
[9] = Hyp mice, 24 h after last dosing

CCN1CCN(c2ccc(Nc3cc(N(C)C(=O)Nc4c(Cl)c(OC)cc(OC)c4Cl)ncn3)cc2)CC1 [BGJ398, 3-(2,6-Dichloro-3,5-dimethoxy-phenyl)-1-{6-[4-(4-ethyl-piperazin-1-yl)-phenylamino]-pyrimid-4-yl}-1-methyl-urea]
renal Cyp24a1 expression [1]: almost complete loss of Cyp24a1 expression | renal Cyp27b1 expression [1]: increased Cyp27b1 levels | serum calcium levels compared to vehicle-treated wild-type mice (Hyp mice [2]; [5]): indistinguishable from vehicle-treated wild-type mice | serum phosphate concentrations compared to wild-type mice (Hyp mice [2]; [5]): still significantly lower compared to serum levels of wild-type mice | 1,25(OH)2D3 serum levels (Hyp mice [2]; both wild-type and Hyp mice, single oral dose 50 mg/kg, 7 h post-dosing): strong increase | serum calcium levels (Hyp mice [2]; [6]): increased; also recorded: elevated | serum phosphate levels (Hyp mice [2]; [6]): increased; also recorded: elevated | calcium serum levels (Hyp mice [2]; [7]): persistent increase | phosphate serum levels (Hyp mice [2]; [7]): persistent increase | serum calcium levels (Dmp1-null mice): increased | serum phosphate levels (Dmp1-null mice): increased | reduction of serum FGF23 levels (FGF23; Hyp mice): approximately 50% | FGF23 expression in bone (mRNA) (FGF23; both Hyp and wild-type mice): almost abolished | serum FGF23 levels (FGF23; wild-type mice): undetectable | serum calcium levels (Hyp mice [3]; [8]): complete normalization | serum phosphate levels (Hyp mice [3]; [8]): complete normalization | FGF23 serum concentrations (Hyp mice [3]; [9]): further increase | PTH levels (serum) (Hyp mice [3]; [9]): normalization | tail length development (Hyp mice [3]; Hyp mice, vs control Hyp): much stronger increase in tail length compared to control Hyp mice | body weight development (Hyp mice [3]; Hyp mice, vs vehicle Hyp): stronger increase in body weight compared to the vehicle control group | tail length gain (Hyp mice [3]; Hyp mice, vs vehicle wild-type): significantly higher compared to vehicle-treated wild-type littermates | 1,25(OH)2D3 serum levels (Hyp mice [3]; wild-type or Hyp mice, 24 h after last dosing): not significantly different among the treatment groups | femoral cortex integrity (micro-CT) (Hyp mice [4]): appeared intact | mineralization in the epiphyseal bone area adjacent to the growth plate (Hyp mice [4]): enhanced mineralization | primary spongiosa in the metaphyseal sub-growth plate area (Hyp mice [4]): formation of primary spongiosa | widening of femoral and tibial growth plate areas (Hyp mice [4]): partially alleviate | growth plate organization (tibial sections, Goldner staining) (Hyp mice [4]; 50 mg/kg): striking re-organization of the growth plate area | femur length (radiography) (Hyp mice [4]; vs vehicle Hyp): significant elongation | tibia length (radiography) (Hyp mice [4]; vs vehicle Hyp): significant elongation | osteoid width (Hyp mice [4]; epiphyseal, metaphyseal and cortical bone compartments): strong reduction | relative cortical bone volume (Hyp mice [4]; femoral cortex, 50 mg/kg): increases from pathological values to indistinguishable with normal values; also recorded: indistinguishable from wild-type mice | average cortex thickness (Hyp mice [4]; femoral cortex, vs vehicle Hyp, 50 mg/kg): significantly increased compared to vehicle-treated Hyp mice | Osteoid surface/bone surface (OS/BS ratio) (Hyp mice [4]; histomorphometry): attenuation of the increased OS/BS ratio | columnar stacks of chondrocytes (Hyp mice [4]; tibial sections): re-formation | height of the proliferative zone (Hyp mice [4]; tibial sections): increased height
